Data: PubChem BioAssay (NCI)
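Each compound was tested at five concentrations against cells in 96-well plates for 48 hours. TGI marks complete inhibition of growth.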

Tests used:
Experiment in all cases: NCI anticancer screen, dose series, 48 h
[1] = system: A549 NSCLC
[2] = system: ACHN renal
[3] = system: CAKI-1 renal
[4] = system: CCRF-CEM leukemia
[5] = system: COLO 205 colon
[6] = system: DMS 114 small cell lung
[7] = system: EKVX NSCLC
[8] = system: HCC-2998 colon
[9] = system: HCT-116 colon
[10] = system: HL-60(TB) leukemia
[11] = system: HOP-62 NSCLC
[12] = system: HOP-92 NSCLC
[13] = system: HT29 colon
[14] = system: IGROV1 ovarian
[15] = system: K-562 leukemia
[16] = system: KM12 colon
[17] = system: KM20L2 colon
[18] = system: LXFL 529 NSCLC
[19] = system: M14 melanoma
[20] = system: M19-MEL melanoma
[21] = system: MOLT-4 leukemia
[22] = system: NCI-H226 lung
[23] = system: NCI-H23 lung
[24] = system: NCI-H460 lung
[25] = system: OVCAR-3 ovarian
[26] = system: OVCAR-4 ovarian
[27] = system: OVCAR-8 ovarian
[28] = system: RPMI-8226 leukemia
[29] = system: RXF 393 renal
[30] = system: SF-268 CNS
[31] = system: SF-295 CNS
[32] = system: SF-539 CNS
[33] = system: SK-MEL-2 melanoma
[34] = system: SK-MEL-28 melanoma
[35] = system: SK-MEL-5 melanoma
[36] = system: SNB-19 CNS
[37] = system: SNB-75 CNS
[38] = system: SW-620 colon
[39] = system: TK-10 renal
[40] = system: UACC-257 melanoma
[41] = system: UACC-62 melanoma
[42] = system: UO-31 renal
[43] = system: 786-0 renal
[44] = system: A498 renal
[45] = system: BT-549 breast
[46] = system: DU-145 prostate
[47] = system: HCT-15 colon
[48] = system: HS 578T breast
[49] = system: LOX IMVI melanoma
[50] = system: MALME-3M melanoma
[51] = system: MCF7 breast
[52] = system: MDA-MB-231 breast
[53] = system: MDA-MB-435
[54] = system: MDA-N
[55] = system: NCI-H522 lung
[56] = system: NCI/ADR-RES ovarian
[57] = system: OVCAR-5 ovarian
[58] = system: PC-3 prostate
[59] = system: SK-OV-3 ovarian
[60] = system: SN12C renal
[61] = system: SR leukemia
[62] = system: T-47D breast
[63] = system: U251 CNS

SMILES: COC(=O)C1=C(C)N2CCCOC2(C)C(C(=O)OC)C1c1cccc(Cl)c1 (stereo unspecified)
- TGI [1]: > 100 µM
- TGI [2]: 93.3 µM
- TGI [3]: 92.5 µM
- TGI [4]: > 100 µM
- TGI [5]: 37.9 µM
- TGI [6]: 60.5 µM
- TGI [7]: 89.3 µM
- TGI [8]: > 100 µM
- TGI [9]: > 100 µM
- TGI [10]: 58.4 µM
- TGI [11]: 48.7 µM
- TGI [12]: 73.9 µM
- TGI [13]: 56.2 µM
- TGI [14]: > 100 µM
- TGI [15]: > 100 µM
- TGI [16]: 43.9 µM
- TGI [17]: 64.4 µM
- TGI [18]: 74.6 µM
- TGI [19]: 74.7 µM
- TGI [20]: 54.3 µM
- TGI [21]: 45.1 µM
- TGI [22]: 59.6 µM
- TGI [23]: > 100 µM
- TGI [24]: 61.3 µM
- TGI [25]: 70.8 µM
- TGI [26]: > 100 µM
- TGI [27]: 87.9 µM
- TGI [28]: 52.1 µM
- TGI [29]: > 100 µM
- TGI [30]: > 100 µM
- TGI [31]: 88.9 µM
- TGI [32]: 93.8 µM
- TGI [33]: 36.6 µM
- TGI [34]: > 100 µM
- TGI [35]: > 100 µM
- TGI [36]: > 100 µM
- TGI [37]: 42.3 µM
- TGI [38]: > 100 µM
- TGI [39]: > 100 µM
- TGI [40]: 57.1 µM
- TGI [41]: 36.5 µM
- TGI [42]: 71.2 µM

SMILES: C=CCNC1=C2C[C@@H](C)C[C@@H](OC)C(OC(=O)CCCN(C)C)[C@H](C)/C=C(\C)[C@@H](OC(N)=O)[C@H](OC)/C=C\C=C(/C)C(=O)NC(=CC1=O)C2=O (stereo partly specified)
- TGI [43]: 24.8 µM
- TGI [44]: 26.9 µM
- TGI [1]: 14.6 µM
- TGI [2]: 20.6 µM
- TGI [45]: 27.6 µM
- TGI [3]: 25.2 µM
- TGI [4]: 31.3 µM
- TGI [5]: 6.5 µM
- TGI [46]: 18.1 µM
- TGI [7]: 26.1 µM
- TGI [8]: 17.6 µM
- TGI [9]: 20.4 µM
- TGI [47]: 19.4 µM
- TGI [10]: 20.2 µM
- TGI [11]: 21.5 µM
- TGI [12]: 34.9 µM
- TGI [48]: 41.7 µM
- TGI [13]: 12.1 µM
- TGI [14]: 21.7 µM
- TGI [15]: > 100 µM
- TGI [16]: 14.6 µM
- TGI [49]: 21.7 µM
- TGI [19]: 20.7 µM
- TGI [50]: 14.4 µM
- TGI [51]: 12.1 µM
- TGI [52]: 17.5 µM
- TGI [53]: 26 µM
- TGI [54]: 19.8 µM
- TGI [21]: 39.1 µM
- TGI [22]: 29.4 µM
- TGI [23]: 20.8 µM
- TGI [24]: 13.9 µM
- TGI [55]: 20.5 µM
- TGI [56]: 52.1 µM
- TGI [25]: 11.7 µM
- TGI [26]: 26.3 µM
- TGI [57]: 28.5 µM
- TGI [27]: 16 µM
- TGI [58]: 17.2 µM
- TGI [28]: 44.3 µM
- TGI [29]: 18.6 µM
- TGI [30]: 27.6 µM
- TGI [31]: 20.5 µM
- TGI [32]: 19.3 µM
- TGI [33]: 25.5 µM
- TGI [34]: 27.4 µM
- TGI [35]: 8.73 µM
- TGI [59]: 12.6 µM
- TGI [60]: 12.6 µM
- TGI [36]: 28.9 µM
- TGI [37]: 22.9 µM
- TGI [61]: 8.97 µM
- TGI [38]: 16.9 µM
- TGI [62]: 24.7 µM
- TGI [39]: 25.1 µM
- TGI [63]: 26.6 µM
- TGI [40]: 27.5 µM
- TGI [41]: 26 µM
- TGI [42]: 26.6 µM
